In US11866430B2, “Naphthyridinone compounds useful as T cell activators” (priority 2018, dated 2024):

What was measured:
[1] = tested on: pre-activated CD4 T cells and Raji cells; test: Raji CD4 T Cell IL2 Assay; type: cell-based; conditions: Homo sapiens, Raji
[2] = target: human DGKα (Homo sapiens (Human), UniProt P23743); test: biochemical; conditions: detergent/lipid micelle substrate; read-out: DGKα IC50
Procedure, shortened: (§1)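 Full-length human DGKζ (and DGKα), C-terminal His-tagged, Sf9-expressed, with phosphatidylserine/DAG micelles in 50 mM octyl glucoside; buffer 50 mM MOPS pH 7.5, 100 mM NaCl, 10 mM MgCl2, 1 μM CaCl2, 1 mM DTT.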

[3] = target: human DGKζ (Homo sapiens (Human), UniProt Q13574); test: DGKζ assay (detergent/lipid micelle substrate); type: biochemical; conditions: detergent/lipid micelle substrate; read-out: DGKζ IC50
Procedure, shortened: as §1

Sequence of human DGKα (P23743 other isoform, or with tags, fused parts or gaps): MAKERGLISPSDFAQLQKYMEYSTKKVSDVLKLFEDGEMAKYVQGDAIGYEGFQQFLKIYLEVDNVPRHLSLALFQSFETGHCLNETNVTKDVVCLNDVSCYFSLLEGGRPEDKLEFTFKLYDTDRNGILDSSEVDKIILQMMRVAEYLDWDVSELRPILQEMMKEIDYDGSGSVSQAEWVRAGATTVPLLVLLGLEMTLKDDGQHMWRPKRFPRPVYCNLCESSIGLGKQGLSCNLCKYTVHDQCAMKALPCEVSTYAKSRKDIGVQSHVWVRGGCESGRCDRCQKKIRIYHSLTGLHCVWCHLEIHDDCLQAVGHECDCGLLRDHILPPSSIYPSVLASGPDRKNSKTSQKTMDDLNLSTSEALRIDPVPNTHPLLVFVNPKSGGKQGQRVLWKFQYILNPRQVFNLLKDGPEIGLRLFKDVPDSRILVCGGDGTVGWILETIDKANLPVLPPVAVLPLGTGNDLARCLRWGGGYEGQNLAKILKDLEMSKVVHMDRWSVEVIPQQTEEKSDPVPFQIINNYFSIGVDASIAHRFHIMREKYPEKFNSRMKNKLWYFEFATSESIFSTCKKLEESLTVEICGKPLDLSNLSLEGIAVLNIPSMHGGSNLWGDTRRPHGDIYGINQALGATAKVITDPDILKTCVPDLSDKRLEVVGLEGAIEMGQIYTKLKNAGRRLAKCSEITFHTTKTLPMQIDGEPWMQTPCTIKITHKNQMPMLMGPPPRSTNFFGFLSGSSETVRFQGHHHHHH
Sequence of human DGKζ (Q13574 other isoform, or with tags, fused parts or gaps): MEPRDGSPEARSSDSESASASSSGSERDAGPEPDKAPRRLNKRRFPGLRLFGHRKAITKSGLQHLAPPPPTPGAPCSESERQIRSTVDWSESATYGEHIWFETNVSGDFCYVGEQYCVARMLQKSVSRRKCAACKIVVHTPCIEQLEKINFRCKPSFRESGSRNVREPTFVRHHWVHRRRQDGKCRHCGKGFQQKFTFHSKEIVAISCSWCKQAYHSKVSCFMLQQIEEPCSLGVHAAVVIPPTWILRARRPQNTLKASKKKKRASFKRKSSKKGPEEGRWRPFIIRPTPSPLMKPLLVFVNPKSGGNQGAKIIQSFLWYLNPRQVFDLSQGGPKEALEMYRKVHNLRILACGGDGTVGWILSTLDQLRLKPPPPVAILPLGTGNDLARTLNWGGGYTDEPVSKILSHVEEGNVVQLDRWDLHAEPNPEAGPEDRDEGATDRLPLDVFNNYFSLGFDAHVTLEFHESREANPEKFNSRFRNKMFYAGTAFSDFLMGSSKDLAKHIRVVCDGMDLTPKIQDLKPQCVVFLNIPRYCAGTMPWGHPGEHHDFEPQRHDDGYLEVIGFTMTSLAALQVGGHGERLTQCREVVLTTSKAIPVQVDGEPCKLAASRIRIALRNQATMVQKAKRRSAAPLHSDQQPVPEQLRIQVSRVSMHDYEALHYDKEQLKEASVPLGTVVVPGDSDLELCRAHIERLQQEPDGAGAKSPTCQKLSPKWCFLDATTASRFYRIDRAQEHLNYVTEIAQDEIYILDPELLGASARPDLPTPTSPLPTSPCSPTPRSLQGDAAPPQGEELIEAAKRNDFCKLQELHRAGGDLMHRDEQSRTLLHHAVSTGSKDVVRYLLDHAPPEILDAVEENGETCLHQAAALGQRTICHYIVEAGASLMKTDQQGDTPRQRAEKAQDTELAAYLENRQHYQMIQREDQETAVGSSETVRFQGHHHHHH

Compound | IC50 [1] [nM] | IC50 [2] [nM] | IC50 [3] [nM]
Cn1c(=O)c(C#N)c(N2CCN(Cc3ccc(Cl)cc3Cl)CC2)c2nc(Cl)ccc21 [Example 310, 6-chloro-4-{4-[(2,4-dichlorophenyl)methyl]piperazin-1-yl}-1-methyl-2-oxo-1,2-dihydro-1,5-naphthyridine-3-carbonitrile] | 220 | 970 | > 240000
COc1cccc(O)c1CN1CCN(c2c(C#N)c(=O)n(C)c3ccc(Br)nc23)CC1 [Example 314, 6-bromo-4-{4-[(2-hydroxy-6-methoxyphenyl)methyl]piperazin-1-yl}-1-methyl-2-oxo-1,2-dihydro-1,5-naphthyridine-3-carbonitrile] | 250 | 170 | 82000
Cn1c(=O)c(C#N)c(N2CCN(Cc3ccccc3O)CC2)c2nc(C#N)ccc21 [Example 317, 8-{4-[(2-hydroxyphenyl)methyl]piperazin-1-yl}-5-methyl-6-oxo-5,6-dihydro-1,5-naphthyridine-2,7-dicarbonitrile] | 290 | 160 | 34000
Cn1c(=O)c(C#N)c(N2CCN(Cc3cc(F)ccc3F)CC2)c2nc(Cl)ccc21 [Example 318, 6-chloro-4-{4-[(2,5-difluorophenyl)methyl]piperazin-1-yl}-1-methyl-2-oxo-1,2-dihydro-1,5-naphthyridine-3-carbonitrile] | 290 | 850 | 140000
Cn1c(=O)c(C#N)c(N2CCN(Cc3ccc(F)c(F)c3)CC2)c2nc(Cl)ccc21 [Example 319, 6-chloro-4-{4-[(3,4-difluorophenyl)methyl]piperazin-1-yl}-1-methyl-2-oxo-1,2-dihydro-1,5-naphthyridine-3-carbonitrile] | 300 | 550 | 220000
Cn1c(=O)c(C#N)c(N2CCN(Cc3cc(F)cc(F)c3O)CC2)c2nc(Br)ccc21 [Example 320, 6-bromo-4-{4-[(3,5-difluoro-2-hydroxyphenyl)methyl]piperazin-1-yl}-1-methyl-2-oxo-1,2-dihydro-1,5-naphthyridine-3-carbonitrile] | 300 | 890 | > 240000
Cn1c(=O)c(C#N)c(N2CCN(Cc3cccc4cn[nH]c34)CC2)c2nc(Cl)ccc21 [Example 322, 6-chloro-4-{4-[(1H-indazol-7-yl)methyl]piperazin-1-yl}-1-methyl-2-oxo-1,2-dihydro-1,5-naphthyridine-3-carbonitrile] | 320 | 2800 | > 240000
Cn1c(=O)c(C#N)c(N2CCN(Cc3cc(F)cc(Cl)c3)CC2)c2nc(Cl)ccc21 [Example 324, 6-chloro-4-{4-[(3-chloro-5-fluorophenyl)methyl]piperazin-1-yl}-1-methyl-2-oxo-1,2-dihydro-1,5-naphthyridine-3-carbonitrile] | 350 | 190 | > 240000
Cn1c(=O)c(C#N)c(N2CCN(Cc3ccc(Cl)c(F)c3)CC2)c2nc(Cl)ccc21 [Example 326, 6-chloro-4-{4-[(4-chloro-3-fluorophenyl)methyl]piperazin-1-yl}-1-methyl-2-oxo-1,2-dihydro-1,5-naphthyridine-3-carbonitrile] | 380 | 1900 | > 240000
COc1cccc(CN2CCN(c3c(C#N)c(=O)n(C)c4ccc(Cl)nc34)CC2)c1 [Example 327, 6-chloro-4-{4-[(3-methoxyphenyl)methyl]piperazin-1-yl}-1-methyl-2-oxo-1,2-dihydro-1,5-naphthyridine-3-carbonitrile] | 430 | 660 | 140000
Cc1ccc(CN2CCN(c3c(C#N)c(=O)n(C)c4ccc(Cl)nc34)CC2)cc1O [Example 328, 6-chloro-4-{4-[(3-hydroxy-4-methylphenyl)methyl]piperazin-1-yl}-1-methyl-2-oxo-1,2-dihydro-1,5-naphthyridine-3-carbonitrile] | 440 | 1000 | 120000
Cn1c(=O)c(C#N)c(N2CCN(Cc3cccc(F)c3F)CC2)c2nc(Cl)ccc21 [Example 330, 6-chloro-4-{4-[(2,3-difluorophenyl)methyl]piperazin-1-yl}-1-methyl-2-oxo-1,2-dihydro-1,5-naphthyridine-3-carbonitrile] | 500 | 3700 | > 240000
COc1ccccc1CN1CCN(c2c(C#N)c(=O)n(C)c3ccc(Cl)nc23)CC1 [Example 331, 6-chloro-4-{4-[(2-methoxyphenyl)methyl]piperazin-1-yl}-1-methyl-2-oxo-1,2-dihydro-1,5-naphthyridine-3-carbonitrile] | 520 | 490 | > 240000
Cn1c(=O)c(C#N)c(N2CCN(Cc3cccc4cn[nH]c34)CC2)c2nc(Br)ccc21 [Example 333, 6-bromo-4-{4-[(1H-indazol-7-yl)methyl]piperazin-1-yl}-1-methyl-2-oxo-1,2-dihydro-1,5-naphthyridine-3-carbonitrile] | 540 | 5000 | 230000
Cc1ccc2c(n1)c(N1CCN(Cc3ccccc3O)CC1)c(C#N)c(=O)n2C [Example 337, 4-{4-[(2-hydroxyphenyl)methyl]piperazin-1-yl}-1,6-dimethyl-2-oxo-1,2-dihydro-1,5-naphthyridine-3-carbonitrile] | 550 | 65 | > 81000
Cn1c(=O)c(C#N)c(N2CCN(Cc3ccccc3F)CC2)c2nc(Cl)ccc21 [Example 339, 6-chloro-4-{4-[(2-fluorophenyl)methyl]piperazin-1-yl}-1-methyl-2-oxo-1,2-dihydro-1,5-naphthyridine-3-carbonitrile] | 650 | 570 | > 240000
COc1ccc(CN2CCN(c3c(C#N)c(=O)n(C)c4ccc(Cl)nc34)CC2)cc1 [Example 341, 6-chloro-4-{4-[(4-methoxyphenyl)methyl]piperazin-1-yl}-1-methyl-2-oxo-1,2-dihydro-1,5-naphthyridine-3-carbonitrile] | 730 | 320 | > 240000
Cn1c(=O)c([N+](=O)[O-])c(N2CCN(C3(c4ccc(F)cc4)CC3)CC2)c2nc(C#N)ccc21 [Example 342, 8-{4-[1-(4-fluorophenyl)cyclopropyl]piperazin-1-yl}-5-methyl-7-nitro-6-oxo-5,6-dihydro-1,5-naphthyridine-2-carbonitrile] | 790 | 28000 | > 240000
Cn1c(=O)c(C#N)c(N2CCN(Cc3ccccc3)CC2)c2nc(Cl)ccc21 [Example 343, 4-(4-benzylpiperazin-1-yl)-6-chloro-1-methyl-2-oxo-1,2-dihydro-1,5-naphthyridine-3-carbonitrile] | 810 | 68 | > 81000
Cn1c(=O)c(C#N)c(N2CCN(Cc3ccccc3F)CC2)c2nc(Br)ccc21 [Example 344, 6-bromo-4-{4-[(2-fluorophenyl)methyl]piperazin-1-yl}-1-methyl-2-oxo-1,2-dihydro-1,5-naphthyridine-3-carbonitrile] | 820 | 400 | > 240000
Cn1c(=O)c(C#N)c(N2CCN(Cc3cc(O)cc(Cl)c3)CC2)c2nc(Cl)ccc21 [Example 345, 6-chloro-4-{4-[(3-chloro-5-hydroxyphenyl)methyl]piperazin-1-yl}-1-methyl-2-oxo-1,2-dihydro-1,5-naphthyridine-3-carbonitrile] | 990 | 4600 | > 240000
Cc1ccccc1CN1CCN(c2c(C#N)c(=O)n(C)c3ccc(Cl)nc23)CC1 [Example 346, 6-chloro-1-methyl-4-{4-[(2-methylphenyl)methyl]piperazin-1-yl}-2-oxo-1,2-dihydro-1,5-naphthyridine-3-carbonitrile] | 1100 | 5300 | > 240000
Cn1c(=O)c(C#N)c(N2CCN(Cc3ccc(F)c(O)c3)CC2)c2nc(Cl)ccc21 [Example 348, 6-chloro-4-{4-[(4-fluoro-3-hydroxyphenyl)methyl]piperazin-1-yl}-1-methyl-2-oxo-1,2-dihydro-1,5-naphthyridine-3-carbonitrile] | 1300 | 220 | 140000
Cn1c(=O)c(C#N)c(N2CCN(Cc3ccc(F)cc3F)CC2)c2nc(Cl)ccc21 [Example 350, 6-chloro-4-{4-[(2,4-difluorophenyl)methyl]piperazin-1-yl}-1-methyl-2-oxo-1,2-dihydro-1,5-naphthyridine-3-carbonitrile] | 1500 | 1200 | > 81000
Cn1c(=O)c(C#N)c(N2CCN(Cc3cccc(O)c3)CC2)c2nc(Cl)ccc21 [Example 351, 6-chloro-4-{4-[(3-hydroxyphenyl)methyl]piperazin-1-yl}-1-methyl-2-oxo-1,2-dihydro-1,5-naphthyridine-3-carbonitrile] | 1500 | 360 | 190000
COc1cccc(CN2CCN(c3c(C#N)c(=O)n(C)c4ccc(C)nc34)CC2)c1O [Example 352, 4-{4-[(2-hydroxy-3-methoxyphenyl)methyl]piperazin-1-yl}-1,6-dimethyl-2-oxo-1,2-dihydro-1,5-naphthyridine-3-carbonitrile] | 1600 | 700 | > 81000
COc1ccc(CN2CCN(c3c(C#N)c(=O)n(C)c4ccc(Cl)nc34)CC2)cc1O [Example 353, 6-chloro-4-{4-[(3-hydroxy-4-methoxyphenyl)methyl]piperazin-1-yl}-1-methyl-2-oxo-1,2-dihydro-1,5-naphthyridine-3-carbonitrile] | 1900 | 65 | > 240000
